Data on eight compounds can be found in US20240238300A1, “TREATMENT METHODS FOR SUBJECTS WITH CANCER HAVING AN ABERRATION IN EGFR AND/OR HER2” (TAIHO PHARMACEUTICAL CO., LTD., priority 2021, published 2024).

Data set [1] deals with MDA-MB-175VII cells (DOC4-NRG1 fusion). In words: growth inhibitory effect in NRG1 fusion-driven cancer cell line (GI50). To be noted: Homo sapiens, mean of 3-4 independent experiments. Format: cell-based. The method, then:
GI50 values were also determined for currently approved EGFR/HER2 tyrosine kinase inhibitors: afatinib, osimertinib, tucatinib, lapatinib, and neratinib, and one investigational drug (poziotinib). Mean values were determined from 3-4 independent experiments.

A further data set concerns SK-BR-3 cells. Kind of data set: feedback activation of HER3, downstream targets and apoptosis markers in SK-BR-3 cells. It counts as cell-based, human. Particulars: for phosphorylation of HER2, HER3, and their downstream targets: 3 hours; for phosphorylation of HER2, HER3, and their downstream targets / BIM and cleaved PARP: 30 to 300 nmol/L; for phosphorylation of HER2, HER3, and their downstream targets (AKT and ERK) / BIM and cleaved PARP: 48 hours. The source says: The effect of Compound (1) on feedback activation of HER3, its downstream targets (ERK and AKT), and apoptosis markers (BIM and cleaved PARP) in SK-BR-3 cells was investigated. In addition, the same information for lapatinib and tucatinib (a reversible inhibitor of HER2) was obtained.

Data set [2] deals with NCI-N87 human gastric carcinoma xenografts. In words: antitumor effect in nude mice bearing NCI-N87 xenografts. It counts as in vivo. To be noted: Day 15. On the procedure: The antitumor effect of Compound (1) was evaluated in nude mice bearing HER2-overexpressing NCI-N87 human gastric carcinoma xenografts. Compound (1) dosing suspensions using 0.5% w/v hydroxypropyl methylcellulose (HPMC) as vehicle were prepared at 4 dose levels (3.1, 6.3, 12.5, and 25.0 mg/kg/day) and administered orally once daily for 14 days. In addition, the antitumor effect of poziotinib, which is a pan-ErbB inhibitor and currently under clinical development for the treatment of cancer with epidermal growth factor receptor containing HER2 exon 20 insertion mutations, was also evaluated using this model. Poziotinib was administered orally once daily for 14 days at 2 dose levels (0.5 or 1.0 mg/kg/day). The control group received 0.5% w/v HPMC once daily for 14 days.

Data set [3] deals with MCF10A_HER2/insYVMA_v human mammary epithelial xenografts. Kind of data set: antitumor effect in nude mice bearing MCF10A_HER2/insYVMA_v xenografts. To be noted: Day 15. It counts as in vivo. On the procedure:
The antitumor effect of Compound (1) was evaluated in a nude mouse xenograft model of MCF10A_HER2/insYVMA_v. MCF10A_HER2/insYVMA_v was established as stably growing cells in vivo derived from MCF10A HER2/insYVMA (a human mammary epithelial cell line engineered to express the HER2 exon 20 insertion mutation A775_G776insYVMA) xenografts subcutaneously transplanted into nude mice. Compound (1) suspensions (using 0.5% w/v HPMC as vehicle) were administered orally once daily to mice at doses of 7.8, 12.5, or 20.0 mg/kg/day for 14 days. The control group received 0.5% weight per volume (w/v) hydroxypropyl methylcellulose (HPMC) solution orally once daily for 14 days.
In addition, the antitumor effect of poziotinib (an irreversible inhibitor of EGFR, HER2, and HER4) was also evaluated using this model.

The subject of data set [4] is intracranial NCI-N87-luc human gastric carcinoma xenografts. Kind of data set: intracranial antitumor effect, NCI-N87-luc xenografts. To be noted: Day 22. Format: in vivo, nude mice. The method, then: The intracranial antitumor effect of Compound (1) was evaluated using Compound (1) in nude mice intracranially implanted with NCI-N87-luc cells, which were engineered to stably express the luciferase gene using the HER2-overexpressing NCI-N87 human gastric carcinoma cell line. Compound (1) dosing suspensions using 0.5% w/v HPMC as vehicle were prepared with Compound (1) at 3 dose levels (16.0, 20.0, or 25.0 mg/kg/day) and administered PO QD for 21 days. The control group received 0.5% weight per volume (w/v) hydroxypropyl methylcellulose (HPMC) solution orally once daily for 21 days. The antitumor effect of poziotinib was also evaluated using this model. Poziotinib was administered PO QD for 21 days at 2 dose levels (0.5 or 1.0 mg/kg/day).

Data set [5] concerns NCI-N87 human gastric carcinoma (HER2 overexpressing) xenografts. Kind of data set: refractory T-mab/P-mab model Step I. Format: in vivo, male nude mice (BALB/cAJcl-mu/mu).
Protocol: Male nude mice (BALB/cAJcl-mu/mu) were implanted with NCI-N87 human gastric carcinoma (HER2 overexpressing); 1.0×10^7 cells in 100 μL of PBS were implanted subcutaneously per mouse.
Data set [6] relates to NCI-N87 tumor fragment #6, clone 3. In words: refractory T-DM1 monoclonal cell line model, comparison to DS-8201a. Format: in vivo, male mice. To be noted: single iv dose of 10 mg/kg T-DM1. The method, then: The obtained cell line was implanted into BALB/cAJcl-mu/nu male mice (8.0×10^6 cells in 100 μL of PBS/mouse, subcutaneous) for the efficacy test.
The tumor volumes (TV, mm) and body weights of the mice were recorded.

In data set [7] the test system is NCI-N87 xenografts relapsed from T-DM1. Particulars: 10 mg/kg/day iv Day 1. On the procedure:
Male nude mice (BALB/cAJ1-mu/mu) were implanted with NCI-N87 human gastric carcinoma (HER2 overexpressing); 1.0×10^7 cells in 100 μL of PBS were implanted subcutaneously per mouse.
PO; or treated with an oral suspension of Compound (1) once per day at a dosage of 25 mg/kg/day, PO. The tumor volumes (TV, mm^3) and body weights of the mice were recorded.

The mark [8] stands for this setting: Step I Day 22, 20 mg/kg/day (each) ip Days 1, 8, 15.

In turn, `CN(C)C/C=C/C(=O)Nc1cc2c(Nc3ccc(F)c(Cl)c3)ncnc2cc1O[C@H]1CCOC1` [afatinib] had a GI50 in data set [1] of 5.6 ± 2.7 nM.

Take `CS(=O)(=O)CCNCc1ccc(-c2ccc3ncnc(Nc4ccc(OCc5cccc(F)c5)c(Cl)c4)c3c2)o1` [lapatinib]: in the data set on SK-BR-3 cells, the “phosphorylation of HER2, HER3, and their downstream targets” value is recorded as “inhibited the phosphorylation”; the “phosphorylation of HER2, HER3, and their downstream targets (AKT and ERK)” value is on record as “increased again”; the “BIM and cleaved PARP” value is “increased”. Besides, in data set [1], it took 89.5 ± 39.5 nM to inhibit growth by half (GI50).

`CCOc1cc2ncc(C#N)c(Nc3ccc(OCc4ccccn4)c(Cl)c3)c2cc1NC(=O)/C=C/CN(C)C` [neratinib] came in with a 50% growth inhibitory concentration (GI50) in data set [1] of 3 ± 0.6 nM.

In data set [1], `C=CC(=O)Nc1cc(Nc2nccc(-c3cn(C)c4ccccc34)n2)c(OC)cc1N(C)CCN(C)C` [osimertinib] registered a GI50 of 29.4 ± 1.5 nM.

`C=CC(=O)N1CCC(Oc2cc3c(Nc4ccc(Cl)c(Cl)c4F)ncnc3cc2OC)CC1` [poziotinib, reference compound]: the “T/C ratio of the mean tumor volumes” value in data set [2] (0.5 mg/kg/day orally once daily 14 days) turned out to be 44.2%; in data set [2] (1.0 mg/kg/day orally once daily 14 days) it was 8.8%. In data set [1], this compound displayed a concentration for 50% growth inhibition (GI50) of 0.3 ± 0.2 nM. Besides, the “T/C ratio of the mean tumor volume” value in data set [3] (0.5 mg/kg/day) was determined as 29.0%; in data set [3] (1.0 mg/kg/day) it was 8.3%. Besides, the figures for the “T/C ratio of the mean total flux” value in data set [4] (0.5 mg/kg/day PO QD 21 days) and in data set [4] (1.0 mg/kg/day PO QD 21 days) were 39.0% and 21.1%, respectively. The “mean body weight change (BWC)” value in data set [4] (0.5 mg/kg/day) is listed as 2.5%; in data set [4] (1.0 mg/kg/day), −0.3%.

As to `Cc1cc(Nc2ncnc3ccc(NC4=NC(C)(C)CO4)cc23)ccc1Oc1ccn2ncnc2c1` [tucatinib], in the data set on SK-BR-3 cells, the “phosphorylation of HER2, HER3, and their downstream targets” value is recorded as “inhibited the phosphorylation”; the “phosphorylation of HER2, HER3, and their downstream targets (AKT and ERK)” value is given as “increased again”; the “BIM and cleaved PARP” value is “increased”. Halving of growth in data set [1] (GI50) required 27.6 ± 5.5 nM.

Turning to pertuzumab [P-mab], the “RTV (mean ± SE)” value in data set [5] (Day 22 to Day 0 (Step I), 20 mg/kg/day (each) ip Days 1, 8, 15) worked out at 4.0. In data set [5] (Step I Day 22, vs non-treatment control, 20 mg/kg/day (each) ip Days 1, 8, 15), this compound showed a T/C of 76.5%. Further, in data set [5] (setting [8]), the “Number of Death” value is listed as 0 and the “TV (mean ± SE)” value worked out at 1233.1 mm^3. In addition, in data set [5] (mouse, in vivo, ip, 20 mg/kg/day), the “BWC (mean ± SE)” value was 10.20%.

Regarding trastuzumab emtansine [T-DM1], the “antitumor effect (tumor volume)” value in data set [6] is “failing to inhibit tumor growth”. Also, the “RTV (mean ± SE)” value in data set [7] (Day 22 to Day 1 (Step II)) is 1.73. For the same compound, in data set [7] (Step II Day 22), the “TV (mean ± SE)” value came out at 595.1 mm^3. The compound also displayed a T/C in data set [7] (Step II Day 22, reference group) of 100.0%.

The GI50 is the concentration giving 50% growth inhibition. For orientation: T/C means the ratio of treated to control.
